Measured values reported in patent US6933305B2, “Amide compounds and use thereof” (Mitsubishi Pharma Corporation, priority 2000, dated 2005).
Where a name gives a salt, the structure may show the parent alone.

Key:
[1] = target: T1, human ROCK-1 kinase domain (1 to 477 amino acids) (Homo sapiens, UniProt Q13464); assay: Rho kinase inhibitory activity (inhibitory activity on human Rho kinase); type: biochemical; conditions: recombinant His-tagged human ROCK-1 kinase domain, histone substrate, 1 μM [32P]ATP, room temperature 20 min
T1 construct: a vector that expresses the kinase domain (1 to 477 amino acids) of the ROCK-1 protein; His-Tag (6xHis); made in house; host or cells: Sf9 insect cells, recombinant baculovirus (pBAC-1 vector)
Description: Rho Kinase Inhibitory Activity (Inhibitory Activity on Human Rho Kinase)
Human Rho kinase was prepared as follows. Using the following primer prepared based on the human ROCK-1 cDNA sequence reported by Ishizaki et al. (T. Ishizaki et al. EMBO J. 15, 1885-1893, 1996) and Human Placenta cDNA (Clontech, Lot. 7030086) as a template, PCR amplification was carried out.
The amplified DNA fragment was digested with Sac I and Not I, and inserted into the Sac I/Not I site of a commercially available vector for insect cell expression, pBAC-1 (Novagenn), whereby a […] human ROCK-1 protein expression vector was prepared. […]
A reaction mixture (total amount 100 μl) containing 20 mM (N-morpholino)propanesulfone acid-NaOH (pH 7.2), 0.1 mg/ml bovine serum albumin, 5 mM dithiothreitol, 10 mM β-glycerophosphoric acid, 50 μM sodium vanadate, 10 mM magnesium chloride, 1 μM [^32P] […] Then, the radioactivity incorporated into the substrate was measured using a liquid scintillation counter. […]

T1 sequence (Q13464 1-477): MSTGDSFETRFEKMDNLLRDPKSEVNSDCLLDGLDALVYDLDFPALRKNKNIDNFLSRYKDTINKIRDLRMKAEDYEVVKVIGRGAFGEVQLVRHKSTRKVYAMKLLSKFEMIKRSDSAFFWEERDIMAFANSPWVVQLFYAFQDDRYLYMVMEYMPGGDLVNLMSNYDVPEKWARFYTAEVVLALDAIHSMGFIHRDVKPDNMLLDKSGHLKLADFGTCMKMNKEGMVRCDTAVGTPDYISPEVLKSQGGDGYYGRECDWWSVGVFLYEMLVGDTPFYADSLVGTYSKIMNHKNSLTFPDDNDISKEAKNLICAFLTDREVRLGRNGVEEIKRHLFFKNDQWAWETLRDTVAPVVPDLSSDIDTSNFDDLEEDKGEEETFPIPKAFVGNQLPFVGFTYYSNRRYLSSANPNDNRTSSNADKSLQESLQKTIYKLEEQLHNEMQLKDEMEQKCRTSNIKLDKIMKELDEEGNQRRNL

SMILES: NC1CCSc2cc(C(=O)Nc3ccncc3)ccc21 (stereo not drawn) (as salt: HCl) [Example 2, 4-amino-N-(4-pyridyl)thiochromane-7-carboxamide]
- melting point: > 280 °C (dec.)

SMILES: N[C@@H]1CCS(=O)(=O)c2cc(C(=O)Nc3ccncc3)ccc21 (as salt: HCl) (hydrate or solvate) [Example 7, (R)-4-amino-N-(4-pyridyl)thiochromane-7-carboxamide 1,1-dioxide]
- melting point: > 250 °C (dec.)

SMILES: N[C@H]1CCSc2cc(C(=O)Nc3ccncc3)ccc21 (as salt: HCl) (hydrate or solvate) [Example 10, (S)-4-amino-N-(4-pyridyl)thiochromane-7-carboxamide]
- melting point: > 260 °C (dec.)

SMILES: N[C@@H]1CCS(=O)(=O)c2cc(C(=O)Nc3ccncc3)ccc21 (as salt: HCl) (hydrate or solvate) [Example 6, (R)-4-amino-N-(4-pyridyl)thiochromane-7-carboxamide 1,1-dioxide]
- melting point: > 275 °C (dec.)

SMILES: N[C@H]1CCSc2cc(C(=O)Nc3ccncc3)ccc21 [Example 10, (S)-4-amino-N-(4-pyridyl)thiochromane-7-carboxamide]
- IC50 [1]: 13 nM

SMILES: NC1CCS(=O)(=O)c2cc(C(=O)Nc3ccncc3)ccc21 (stereo not drawn) (as salt: HCl) (hydrate or solvate) [Example 1, 4-amino-N-(4-pyridyl)thiochromane-7-carboxamide 1,1-dioxide]
- melting point: > 230 °C (dec.)
